Values quoted from earlier work in US20210353513A1, “STABILIZED OIL-IN-WATER EMULSION” (priority 2018, published 2021).

Density (g/cm^3) at 20° C.: 1.05 g/mL
SMILES: CCCCCCCCCC(=O)OCC(COC(=O)CCCCCCCCC)OC(=O)CCCCCCCCC [Tricaprin (s, β), Tricaprin]
